A short description of the data set: octanol-water partition coefficient (Log P value). In kind it is physicochemical. As to conditions: octanol-water distribution coefficient. The text has this: In the preparation of the cellulose acylate film according to the invention, among the aforementioned compound for suppressing an alignment of cellulose acylate in the film along the in-plane direction and the direction of film thickness thereby sufficiently reducing Rth, preferred is a compound having an octanol-water distribution coefficient (log P value) within a range of from 0 to 7. […] Also, a compound having a log P value or 0 or more has a lower hydrophilicity and thus can suppress deterioration of the water resistance of the cellulose acylate film. The log P value is more preferably within a range of from 1 to 6, and particularly preferably 1.5 to 5. The octanol-water distribution coefficient (log P value) can be measured by a flask […] method described in Japan Industrial Standards (JIS) Z7260-107 (2000). The octanol-water distribution coefficient (log P value) may also be estimated, instead of an actual measurement, by a calculational chemical method or an empirical method. […]

Structures are written as SMILES.

Usually logP stands for the decadic logarithm of the partition coefficient of the neutral form, usually between octanol and water. A lower logP goes with a more hydrophilic compound. In turn, `CCCCCCCCOc1ccc(C(=O)c2ccccc2)c(O)c1` [UV-102] yielded a logP of 5.6.

As for `Cc1ccc(S(=O)(=O)Nc2ccccc2)cc1` [A-19], the logP came out at 2.9.
